Test: gradient 5% acetonitrile 3 min, to 50% in 2 min, to 85% in 15 min, held 3 min, 100 µL/min
Details: column: Zorbax Extend-C18 2.1 x 50 mm; eluents: water / acetonitrile, 0.1% formic acid
Method in brief: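 Values are retention times taken from adduct peaks that software picked and an analyst inspected. The pure standards were run as mixtures of ~100 molecules on HPLC linked to a quadrupole time-of-flight mass spectrometer, in positive and negative ionization mode. A Zorbax Extend-C18 column (2.1 × 50 mm, 1.8 μm) was used at 100 μL/min with water and acetonitrile, each including 0.1% formic acid.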

Structure (SMILES): Cc1nnc(N2CCCC(C(=O)NC3CCCCCC3)C2)c2nn(-c3ccc(Cl)cc3)c(C)c12 (stereo not given)
- RP-LC retention time: 831 s

Structure (SMILES): O=C(Nc1cccc(N2CCCCC2=O)c1)c1ccc(Br)o1
- RP-LC retention time: 680 s

Structure (SMILES): CCCn1cc(C(=O)Nc2cccc(C)c2)c(S(=O)(=O)N2CCSCC2)n1
- RP-LC retention time: 1120 s

Structure (SMILES): CCn1cc(CCNC(=O)Nc2cccc(Cl)c2)c2cccnc21
- RP-LC retention time: 788 s

Structure (SMILES): C=CCn1c(C)c(CC(=O)NCC(C)C)c(=O)n2nc(-c3ccc(C)cc3)nc12
- RP-LC retention time: 840 s

Structure (SMILES): O=C(O)C1CCN(S(=O)(=O)c2ccccc2[N+](=O)[O-])CC1
- RP-LC retention time: 701 s

Structure (SMILES): CCOc1ccc(N2C=C(C#N)S(=O)(=O)c3ccccc32)cc1
- RP-LC retention time: 943 s

Structure (SMILES): COc1ccc(OC)c(NC(=O)C2CCCN(S(=O)(=O)c3cc(-c4noc(C)n4)cs3)C2)c1 (stereo not given)
- RP-LC retention time: 966 s

Structure (SMILES): CCn1cc(-c2ccc(OC)cc2)cc1C(=O)N1CCCCCC1
- RP-LC retention time: 1080 s

Structure (SMILES): O=S(=O)(NCCc1noc(-c2ccccc2)n1)c1ccc(Cl)cc1
- RP-LC retention time: 980 s

Structure (SMILES): CCc1nc2cc(-c3noc(Cc4cccc(F)c4)n3)ccc2o1
- RP-LC retention time: 1050 s

Structure (SMILES): CCn1c(CCNC(=O)c2ccc3ccccc3n2)nc2cccnc21
- RP-LC retention time: 685 s

Structure (SMILES): O=S(=O)(c1ccc(F)c(F)c1)N1CCc2nc(-c3ccc(Cl)cc3)ncc2C1
- RP-LC retention time: 1230 s

Structure (SMILES): CCCNS(=O)(=O)c1cc(-c2nc(C(C)C)cs2)sc1C
- RP-LC retention time: 1160 s

Structure (SMILES): COc1ccccc1-c1noc(-c2nn(-c3ccc(F)c(F)c3)ccc2=O)n1
- RP-LC retention time: 807 s

Structure (SMILES): COc1ccc(-c2cc(N3CCN(C(=O)Nc4ccc(OC)c(OC)c4)CC3)ncn2)cc1
- RP-LC retention time: 620 s

Structure (SMILES): COc1ccc2c(c1)C1(CCN(S(=O)(=O)c3cccc(Cl)c3)C1)C(=O)N2 (stereo not given)
- RP-LC retention time: 866 s

Structure (SMILES): CCCn1c(=O)c(C)nc2cc(-c3noc(CN4C(=O)COc5ccc(Cl)cc54)n3)ccc21
- RP-LC retention time: 1060 s

Structure (SMILES): COc1ccc(F)cc1S(=O)(=O)N1CCCC(Cn2c(C3CC3)nc3cccnc32)C1 (stereo not given)
- RP-LC retention time: 742 s

Structure (SMILES): CCCCN(C)C(=O)c1cn2cc(Cl)ccc2n1
- RP-LC retention time: 736 s

Structure (SMILES): Cc1sc(NC(=O)c2ccc(Br)cc2)nc1-c1ccc2c(c1)NC(=O)CO2
- RP-LC retention time: 972 s

Structure (SMILES): Cc1ccc(C)c(-c2cc3c(=O)n(Cc4nc(-c5ccccc5)no4)ncn3n2)c1
- RP-LC retention time: 1200 s

Structure (SMILES): Cc1nnc(SCC(=O)Nc2nc(-c3ccccc3)ns2)s1
- RP-LC retention time: 852 s

Structure (SMILES): O=C(CCC1CCN(c2cc(NC3CC3)ncn2)CC1)NCc1ccc(Cl)cc1
- RP-LC retention time: 680 s

Structure (SMILES): CCCN(C)C[C@@H]1CC(F)(F)CN1C1CCN(S(=O)(=O)c2ccccc2C)CC1
- RP-LC retention time: 620 s

Structure (SMILES): Cc1ccc(NS(=O)(=O)c2cc3c(=O)n(C)ncn3c2)cc1C
- RP-LC retention time: 849 s

Structure (SMILES): CCc1ccc(CNC(=O)Cn2cnc3nc4c(cc3c2=O)CCCC4)cc1
- RP-LC retention time: 765 s

Structure (SMILES): CC(C)n1cnnc1CC1CN(C(=O)Nc2ccccc2Cl)C1
- RP-LC retention time: 640 s

Structure (SMILES): CCOC(=O)C1=C(CN2CCC(C(=O)OCC)CC2)NC(=O)NC1c1ccc(C)cc1 (stereo not given)
- RP-LC retention time: 665 s

Structure (SMILES): COc1ncc(C(=O)Nc2ccc(F)c(F)c2)c(C)n1
- RP-LC retention time: 795 s

Structure (SMILES): CCS(=O)(=O)N1C[C@@H](COC)[C@H](c2ccncc2)C1
- RP-LC retention time: 544 s

Structure (SMILES): O=C(NCC(c1cccs1)S(=O)(=O)c1cccs1)NC1CCCCC1 (stereo not given)
- RP-LC retention time: 790 s

Structure (SMILES): CCC(=O)N1CCc2cc(C)c(S(=O)(=O)NC3CCCC3)cc21
- RP-LC retention time: 869 s

Structure (SMILES): CCn1c(CC2CCN(C(=O)NCCc3ccccc3)C2)nc2cccnc21 (stereo not given)
- RP-LC retention time: 588 s

Structure (SMILES): Nc1cc(=O)nc(SCC(=O)Nc2nc(-c3ccccc3)cs2)n1-c1ccccc1
- RP-LC retention time: 727 s

Structure (SMILES): CCn1c(C)c(C(=O)CN(CC2CCCO2)C(=O)c2ccc(Cl)cc2)c(C)c1C(=O)OC (stereo not given)
- RP-LC retention time: 978 s

Structure (SMILES): COc1cc(OC)cc(-c2nc(C3CC(=O)N(c4ccc(F)cc4)C3)no2)c1 (stereo not given)
- RP-LC retention time: 977 s

Structure (SMILES): O=C(c1ccnc(-c2cccs2)c1)N1CCN(c2ccccn2)CC1
- RP-LC retention time: 605 s

Structure (SMILES): CCN1C(=O)c2cccc3c(NC(=O)Nc4cccc(Cl)c4)ccc1c23
- RP-LC retention time: 889 s

Structure (SMILES): Cc1ccn2c(NC(=O)c3ccc([N+](=O)[O-])cc3)c(-c3ccc(F)cc3)nc2c1
- RP-LC retention time: 684 s

Structure (SMILES): Cc1oc2ccn(Cc3cccc(F)c3)c(=O)c2c1C(=O)NCc1ccccc1F
- RP-LC retention time: 1060 s

Structure (SMILES): O=C(Cn1cnc(-c2cccs2)cc1=O)NCCn1nc(-c2ccco2)ccc1=O
- RP-LC retention time: 636 s

Structure (SMILES): Cc1cccc(NC(=O)C2C(=O)N(C)C3(C)CC2c2ccccc2O3)c1 (stereo not given)
- RP-LC retention time: 995 s

Structure (SMILES): CCOC(=O)Cc1csc(NC(=O)Cc2csc(Nc3cc(C)ccn3)n2)n1
- RP-LC retention time: 624 s

Structure (SMILES): CCc1nn2c(CNS(=O)(=O)c3ccccc3C)c(-c3ccccc3)nc2s1
- RP-LC retention time: 921 s

Structure (SMILES): Cc1nc2nc(-c3ccc(C(C)(C)C)cc3)nn2c(C)c1CC(=O)N1CCCC1
- RP-LC retention time: 900 s

Structure (SMILES): O=C(Nc1c(-c2cccc(F)c2)nc2sc(N3CCCCC3)nn12)C1CC1
- RP-LC retention time: 897 s

Structure (SMILES): COc1ccc(NC(=O)c2noc3c2CCCC3)cc1OC
- RP-LC retention time: 842 s

Structure (SMILES): O=C(CCC1CCN(S(=O)(=O)c2ccccc2)CC1)NCC1CCCCC1
- RP-LC retention time: 971 s

Structure (SMILES): O=C(c1c[nH]c2ccccc12)N1CCC2(CC1)NC(=O)N(Cc1ccccc1)C2=O
- RP-LC retention time: 750 s

Structure (SMILES): CCS(=O)(=O)c1nc2ccc(NS(=O)(=O)CCc3ccccc3)cc2s1
- RP-LC retention time: 918 s

Structure (SMILES): CC(C)OC(=O)c1c(-c2ccccc2)c(-c2ccccc2)n[nH]c1=O
- RP-LC retention time: 910 s

Structure (SMILES): Cc1ccc(NC(=O)c2cc3c(=O)n(C)c4ccccc4n3n2)cc1F
- RP-LC retention time: 975 s

Structure (SMILES): CN(C)c1ncncc1N1CCC(C(=O)N2CCCC2)CC1
- RP-LC retention time: 567 s

Structure (SMILES): Cc1ccc(-n2c(-c3ccc(Cl)cc3)cn3c4c(=O)n(C)c(=O)n(C)c4nc23)cc1C
- RP-LC retention time: 720 s

Structure (SMILES): O=C(Nc1ccccc1C(F)(F)F)c1csc(-c2ccc(N3CCCC3)nc2)n1
- RP-LC retention time: 890 s

Structure (SMILES): COc1ccc(-c2cn3c(CCC(=O)NCc4ccco4)csc3n2)cc1
- RP-LC retention time: 637 s

Structure (SMILES): Cc1cc(-c2ccc3c(c2)CCN3C(=O)C2CCCO2)on1 (stereo not given)
- RP-LC retention time: 767 s

Structure (SMILES): Cn1c(CN2CCN(C(=O)c3ccco3)CC2)nc2cc(NC(=O)c3ccco3)ccc21
- RP-LC retention time: 607 s

Structure (SMILES): Cc1oc(C2CCN(S(=O)(=O)CCc3ccccc3)CC2)nc1C(=O)N1CCCCC1
- RP-LC retention time: 943 s

Structure (SMILES): CCn1ncc(NC(=O)COc2ccc(F)cc2)c(N2CCOCC2)c1=O
- RP-LC retention time: 821 s

Structure (SMILES): Cc1[nH]c2ccc(C(=O)NC3CCCC3)cc2c1C
- RP-LC retention time: 650 s

Structure (SMILES): CN(C)CCC1c2ccc(Cl)cc2CCc2cccnc21 (stereo not given)
- RP-LC retention time: 666 s

Structure (SMILES): CCOC(=O)Cn1nc2c(-c3nc(-c4ccc(Cl)cc4)no3)cccn2c1=O
- RP-LC retention time: 958 s

Structure (SMILES): CCN1CCCC(Cn2cc(COc3ccc4c(c3)CCC4)nn2)C1 (stereo not given)
- RP-LC retention time: 679 s

Structure (SMILES): COc1ccccc1-c1noc(CN2C(=O)COc3ccccc32)n1
- RP-LC retention time: 880 s

Structure (SMILES): CN(C)C[C@@H]1CN(S(C)(=O)=O)C[C@H]1NC(=O)c1ccsc1
- RP-LC retention time: 569 s

Structure (SMILES): COc1cccc(CNC2=NCCNC23CCN(S(=O)(=O)c2ccccc2)CC3)c1
- RP-LC retention time: 678 s

Structure (SMILES): O=C(NCC(=O)N1CCCc2ccccc21)c1ccoc1
- RP-LC retention time: 708 s

Structure (SMILES): CCOc1ccccc1NC(=O)Cn1c(=O)n(Cc2cccs2)c(=O)c2ncccc21
- RP-LC retention time: 772 s

Structure (SMILES): COc1cc2nc(C(=O)N3CCCCC3)cc(Nc3ccc(Br)cc3)c2cc1OC
- RP-LC retention time: 743 s

Structure (SMILES): NC(=O)Nc1ccc(Nc2ccccc2)cc1
- RP-LC retention time: 752 s

Structure (SMILES): Cn1c(=O)c(N2CCC(C(=O)NCCc3c[nH]c4ccc(Cl)cc34)CC2)nc2ccccc21
- RP-LC retention time: 892 s

Structure (SMILES): CCCNC(=O)C1CCCN(c2nc3ncn(CC(=O)Nc4c(C)cc(C)cc4C)c(=O)c3s2)C1 (stereo not given)
- RP-LC retention time: 728 s

Structure (SMILES): CCOC(=O)c1noc2nc(C)nc(Nc3ccc(Cl)cc3)c12
- RP-LC retention time: 1200 s

Structure (SMILES): Cc1ccc(CN2C(=O)CN(S(C)(=O)=O)CC2(C)C(=O)NCc2ccc(Cl)cc2)cc1 (stereo not given)
- RP-LC retention time: 906 s

Structure (SMILES): CCN(CCCNC(=O)CCc1nnc2ccc(-c3ccccc3)nn12)c1ccccc1
- RP-LC retention time: 654 s

Structure (SMILES): CCN1C(=O)COc2ccc(-c3nc(NC(=O)c4ccncc4)sc3C)cc21
- RP-LC retention time: 768 s

Structure (SMILES): CNC(=O)C(=O)NCC1CCN(S(C)(=O)=O)CC1
- RP-LC retention time: 541 s

Structure (SMILES): CCCNc1cc(N2CCC(CCC(=O)NCCc3cccnc3)CC2)ncn1
- RP-LC retention time: 542 s

Structure (SMILES): Cc1ccc(-n2c(=O)n(CC(=O)NCCN3CCCCC3)c3cccnc32)cc1
- RP-LC retention time: 616 s

Structure (SMILES): O=C(Nc1ccc(F)cc1)C1CC(=O)N(c2ccc3c(c2)CCN3C(=O)C2CC2)C1 (stereo not given)
- RP-LC retention time: 775 s

Structure (SMILES): O=C(NCc1nc(-c2ccccc2)no1)c1csc(-n2cccc2)n1
- RP-LC retention time: 894 s

Structure (SMILES): CCCNC(=O)N(C1CCOCC1)C1CCN(C(=O)c2ccc3ccccc3n2)CC1
- RP-LC retention time: 707 s

Structure (SMILES): O=C(NC1CCCc2ccccc21)C1CCCN(c2ccnc(-c3ccc(F)cc3)n2)C1 (stereo not given)
- RP-LC retention time: 734 s

Structure (SMILES): Cc1cc(C(=O)N2c3ccccc3CC2c2nnc(C3CC3)o2)nn1C (stereo not given)
- RP-LC retention time: 786 s

Structure (SMILES): CNC(=O)c1cc(-c2ccc(F)cc2)nc2ccccc12
- RP-LC retention time: 819 s

Structure (SMILES): O=C(NCc1cc(F)ccc1F)C1CCc2nc(N3CCCC3)ncc2C1 (stereo not given)
- RP-LC retention time: 646 s

Structure (SMILES): CCc1nncn1C1CCN(S(=O)(=O)c2cc(OC)ccc2OC)CC1
- RP-LC retention time: 664 s

Structure (SMILES): COc1ccc(-c2ncccc2CNS(=O)(=O)c2cc(C)cc(C)c2)cc1
- RP-LC retention time: 717 s

— the METLIN SMRT retention time set (Domingo-Almenara et al. 2019)
